# Results reported in ChEMBL document CHEMBL1201862, “PubChem BioAssay data set” (2004).
#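 48-hour exposure; five concentrations; linearly interpolated endpoints. At the GI50, growth is halved.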 The source made the active and inactive calls. No stated cut-off is given here; in the data, active = GI50 up to about 1.1 µM and inactive = higher.
# Tests used:
# Assay in all cases: DTP human tumour cell line panel, 48 h
# A498 = tested on: A498
# A549 = tested on: A549
# ACHN = tested on: ACHN
# BT-549 = tested on: BT-549
# CAKI-1 = tested on: CAKI-1
# CCRF-CEM = tested on: CCRF-CEM
# COLO 205 = tested on: COLO 205
# DU-145 = tested on: DU-145
# EKVX = tested on: EKVX
# HCC 2998 = tested on: HCC 2998
# HCT-116 = tested on: HCT-116
# HCT-15 = tested on: HCT-15
# HL-60 = tested on: HL-60
# HOP-62 = tested on: HOP-62
# HOP-92 = tested on: HOP-92
# HT-29 = tested on: HT-29
# Hs-578T = tested on: Hs-578T
# IGROV-1 = tested on: IGROV-1
# K562 = tested on: K562
# KM12 = tested on: KM12
# LOX IMVI = tested on: LOX IMVI
# M14 = tested on: M14
# MCF7 = tested on: MCF7
# MDA-MB-231 = tested on: MDA-MB-231
# MDA-MB-435 = tested on: MDA-MB-435
# MDA-N = tested on: MDA-N
# MOLT-4 = tested on: MOLT-4
# Malme-3M = tested on: Malme-3M
# NCI-H226 = tested on: NCI-H226
# NCI-H23 = tested on: NCI-H23
# NCI-H460 = tested on: NCI-H460
# NCI-H522 = tested on: NCI-H522
# NCI/ADR-RES = tested on: NCI/ADR-RES
# OVCAR-3 = tested on: OVCAR-3
# OVCAR-4 = tested on: OVCAR-4
# OVCAR-5 = tested on: OVCAR-5
# OVCAR-8 = tested on: OVCAR-8
# PC-3 = tested on: PC-3
# RPMI-8226 = tested on: RPMI-8226
# RXF 393 = tested on: RXF 393
# SF-268 = tested on: SF-268
# SF-295 = tested on: SF-295
# SF-539 = tested on: SF-539
# SK-MEL-28 = tested on: SK-MEL-28
# SK-MEL-2 = tested on: SK-MEL-2
# SK-MEL-5 = tested on: SK-MEL-5
# SK-OV-3 = tested on: SK-OV-3
# SN12C = tested on: SN12C
# SNB-19 = tested on: SNB-19
# SR = tested on: SR
# SW-620 = tested on: SW-620
# T47D = tested on: T47D
# TK-10 = tested on: TK-10
# U-251 = tested on: U-251
# UACC-257 = tested on: UACC-257
# UACC-62 = tested on: UACC-62
# UO-31 = tested on: UO-31
# 786-0 = tested on: 786-0
# SNB-75 = tested on: SNB-75
smiles,measurement,setting,value
C=CCNC(=S)N/N=C1\C(=O)Nc2ccc([N+](=O)[O-])cc21,GI50,A498,21.1 µM (inactive)
same,GI50,A549,34.2 µM (inactive)
same,GI50,ACHN,23.3 µM (inactive)
same,GI50,BT-549,52.4 µM (inactive)
same,GI50,CAKI-1,14.2 µM (inactive)
same,GI50,CCRF-CEM,5.13 µM (inactive)
same,GI50,COLO 205,92 µM (inactive)
same,GI50,DU-145,31.4 µM (inactive)
same,GI50,EKVX,42.2 µM (inactive)
same,GI50,HCC 2998,23.3 µM (inactive)
same,GI50,HCT-116,24.8 µM (inactive)
same,GI50,HCT-15,7.57 µM
same,GI50,HL-60,54.7 µM (inactive)
same,GI50,HOP-62,> 100 µM (inactive)
same,GI50,HOP-92,44.2 µM (inactive)
same,GI50,HT-29,68.7 µM (inactive)
same,GI50,Hs-578T,> 100 µM (inactive)
same,GI50,IGROV-1,23.3 µM (inactive)
same,GI50,K562,32.1 µM (inactive)
same,GI50,KM12,46.6 µM (inactive)
same,GI50,LOX IMVI,81.8 µM (inactive)
same,GI50,M14,62.1 µM (inactive)
same,GI50,MCF7,36.1 µM (inactive)
same,GI50,MDA-MB-231,> 100 µM (inactive)
same,GI50,MDA-MB-435,89.3 µM (inactive)
same,GI50,MDA-N,83 µM (inactive)
same,GI50,MOLT-4,16.7 µM (inactive)
same,GI50,Malme-3M,> 100 µM (inactive)
same,GI50,NCI-H226,> 100 µM (inactive)
same,GI50,NCI-H23,38.6 µM (inactive)
same,GI50,NCI-H460,16.6 µM (inactive)
same,GI50,NCI-H522,64.1 µM (inactive)
same,GI50,NCI/ADR-RES,17.7 µM (inactive)
same,GI50,OVCAR-3,69.2 µM (inactive)
same,GI50,OVCAR-4,41.4 µM (inactive)
same,GI50,OVCAR-5,> 100 µM (inactive)
same,GI50,OVCAR-8,50.5 µM (inactive)
same,GI50,PC-3,> 100 µM (inactive)
same,GI50,RPMI-8226,57.3 µM (inactive)
same,GI50,RXF 393,16.8 µM (inactive)
same,GI50,SF-268,57 µM (inactive)
same,GI50,SF-295,29 µM (inactive)
same,GI50,SF-539,> 100 µM (inactive)
same,GI50,SK-MEL-28,> 100 µM (inactive)
same,GI50,SK-MEL-2,> 100 µM (inactive)
same,GI50,SK-MEL-5,30.1 µM (inactive)
same,GI50,SK-OV-3,34 µM (inactive)
same,GI50,SN12C,35.5 µM (inactive)
same,GI50,SNB-19,55.7 µM (inactive)
same,GI50,SR,10.3 µM (inactive)
same,GI50,SW-620,82 µM (inactive)
same,GI50,T47D,25.5 µM (inactive)
same,GI50,TK-10,26.4 µM (inactive)
same,GI50,U-251,64.3 µM (inactive)
same,GI50,UACC-257,71 µM (inactive)
same,GI50,UACC-62,> 100 µM (inactive)
same,GI50,UO-31,31.2 µM (inactive)
CSc1ncnc2c1cnn2Cc1cn(COCCO)nn1,GI50,786-0,18.7 µM (inactive)
same,GI50,A498,> 100 µM (inactive)
same,GI50,A549,51.8 µM (inactive)
same,GI50,ACHN,> 100 µM (inactive)
same,GI50,BT-549,> 100 µM (inactive)
same,GI50,CCRF-CEM,43.5 µM (inactive)
same,GI50,COLO 205,33.9 µM (inactive)
same,GI50,DU-145,49.3 µM (inactive)
same,GI50,HCC 2998,32.2 µM (inactive)
same,GI50,HCT-116,45.4 µM (inactive)
same,GI50,HCT-15,> 100 µM
same,GI50,HL-60,40 µM (inactive)
same,GI50,HOP-62,64.7 µM (inactive)
same,GI50,HOP-92,> 100 µM (inactive)
same,GI50,HT-29,22.3 µM (inactive)
same,GI50,Hs-578T,> 100 µM (inactive)
same,GI50,IGROV-1,74.8 µM (inactive)
same,GI50,K562,38.4 µM (inactive)
same,GI50,KM12,23.2 µM (inactive)
same,GI50,LOX IMVI,80.7 µM (inactive)
same,GI50,M14,> 100 µM (inactive)
same,GI50,MCF7,43.3 µM (inactive)
same,GI50,MDA-MB-231,> 100 µM (inactive)
same,GI50,MDA-MB-435,11.1 µM (inactive)
same,GI50,MDA-N,18.5 µM (inactive)
same,GI50,Malme-3M,> 100 µM (inactive)
same,GI50,NCI-H226,> 100 µM (inactive)
same,GI50,NCI-H23,49.7 µM (inactive)
same,GI50,NCI-H460,32 µM (inactive)
same,GI50,NCI/ADR-RES,> 100 µM (inactive)
same,GI50,OVCAR-3,18.3 µM (inactive)
same,GI50,OVCAR-4,45.5 µM (inactive)
same,GI50,OVCAR-5,88.5 µM (inactive)
same,GI50,PC-3,36 µM (inactive)
same,GI50,RPMI-8226,34.3 µM (inactive)
same,GI50,RXF 393,46.6 µM (inactive)
same,GI50,SF-268,> 100 µM (inactive)
same,GI50,SF-539,> 100 µM (inactive)
same,GI50,SK-MEL-28,> 100 µM (inactive)
same,GI50,SK-MEL-2,39 µM (inactive)
same,GI50,SK-MEL-5,46.8 µM (inactive)
same,GI50,SK-OV-3,47.6 µM (inactive)
same,GI50,SN12C,64.6 µM (inactive)
same,GI50,SNB-19,> 100 µM (inactive)
same,GI50,SR,12.5 µM (inactive)
same,GI50,SW-620,44.3 µM (inactive)
same,GI50,T47D,> 100 µM (inactive)
same,GI50,TK-10,> 100 µM (inactive)
same,GI50,U-251,64.1 µM (inactive)
same,GI50,UACC-257,> 100 µM (inactive)
same,GI50,UACC-62,84.3 µM (inactive)
same,GI50,UO-31,> 100 µM (inactive)
COc1cc(/C=C2\N=C(c3ccccc3)N(c3nc4c(OC)ccc(OC)c4s3)C2=O)ccc1O,GI50,786-0,39.4 µM (inactive)
same,GI50,A498,> 100 µM (inactive)
same,GI50,A549,69.3 µM (inactive)
same,GI50,ACHN,59.2 µM (inactive)
same,GI50,BT-549,96.4 µM (inactive)
same,GI50,CAKI-1,> 100 µM (inactive)
same,GI50,CCRF-CEM,28.1 µM (inactive)
same,GI50,COLO 205,96.8 µM (inactive)
same,GI50,DU-145,28.8 µM (inactive)
same,GI50,EKVX,> 100 µM (inactive)
same,GI50,HCC 2998,33.8 µM (inactive)
same,GI50,HCT-116,95.9 µM (inactive)
same,GI50,HCT-15,70.1 µM
same,GI50,HL-60,36.6 µM (inactive)
same,GI50,HOP-62,90.8 µM (inactive)
same,GI50,HOP-92,35.6 µM (inactive)
same,GI50,HT-29,> 100 µM (inactive)
same,GI50,Hs-578T,48.8 µM (inactive)
same,GI50,IGROV-1,46.8 µM (inactive)
same,GI50,K562,18.1 µM (inactive)
same,GI50,KM12,51.2 µM (inactive)
same,GI50,LOX IMVI,24 µM (inactive)
same,GI50,M14,88.5 µM (inactive)
same,GI50,MCF7,17.3 µM (inactive)
same,GI50,MDA-MB-231,45.7 µM (inactive)
same,GI50,MDA-MB-435,20.1 µM (inactive)
same,GI50,MDA-N,24.1 µM (inactive)
same,GI50,MOLT-4,16.7 µM (inactive)
same,GI50,Malme-3M,85.7 µM (inactive)
same,GI50,NCI-H23,> 100 µM (inactive)
same,GI50,NCI-H460,51.4 µM (inactive)
same,GI50,NCI-H522,31.1 µM (inactive)
same,GI50,NCI/ADR-RES,> 100 µM (inactive)
same,GI50,OVCAR-3,37.1 µM (inactive)
same,GI50,OVCAR-5,> 100 µM (inactive)
same,GI50,OVCAR-8,30.8 µM (inactive)
same,GI50,PC-3,32.4 µM (inactive)
same,GI50,RPMI-8226,23.1 µM (inactive)
same,GI50,RXF 393,11.1 µM (inactive)
same,GI50,SF-268,39.1 µM (inactive)
same,GI50,SF-295,79.1 µM (inactive)
same,GI50,SF-539,57.9 µM (inactive)
same,GI50,SK-MEL-28,> 100 µM (inactive)
same,GI50,SK-MEL-2,35.5 µM (inactive)
same,GI50,SK-MEL-5,54.8 µM (inactive)
same,GI50,SK-OV-3,> 100 µM (inactive)
same,GI50,SN12C,> 100 µM (inactive)
same,GI50,SNB-19,> 100 µM (inactive)
same,GI50,SNB-75,8.34 µM (inactive)
same,GI50,SR,30 µM (inactive)
same,GI50,SW-620,42.2 µM (inactive)
same,GI50,T47D,5.47 µM (inactive)
same,GI50,TK-10,58.1 µM (inactive)
same,GI50,U-251,29.9 µM (inactive)
same,GI50,UACC-257,38 µM (inactive)
same,GI50,UACC-62,33 µM (inactive)
same,GI50,UO-31,76.7 µM (inactive)
